Data as given in US20240041840A1 (Areteia Therapeutics, Inc., priority 2020, published 2024).
Read-outs that look alike come from different tables or passages of the source.

Legend:
[1] = tested on: subjects with eosinophilic asthma; conditions: for Post-Bronchodilator FEV1 Reversibility % change, mean / Post-Bronchodilator FEV1 Reversibility % change, median / Post-Bronchodilator FEV1 Reversibility change, mean / Post-Bronchodilator FEV1 Reversibility change, median / Post-Bronchodilator FEV1 Reversibility observed, mean / Post-Bronchodilator FEV1 Reversibility observed, median: Week 12
Description: Pulmonary function is measured by performing a spirometry, which measures forced expiratory volume in is (FEV1), the volume of air moved in the first second of exhalation, this is a well-accepted measure of asthma. Forced vital capacity (FVC) is the total volume of air exhaled during the entire forced expiratory volume (FEV) test. The FEV1/FVC ratio is a calculated measure that may provide a more specific measure of bronchoconstriction, independent of processes such as air trapping. Pulmonary function testing can be tested pre-bronchodilator (after waiting a sufficient time so that all bronchodilator medications have cleared) or post-bronchodilator, typically 15-30 minutes after inhaling a short-acting bronchodilator, such as albuterol. Bronchodilator reversibility (BDR) is calculated and assessed by analyzing FEV1 pre- and post-bronchodilator, and calculating the change both as absolute (ml) and percentage change.
Table 10 provides the data for analyzing bronchodilator reversibility, the % improvement in FEV1 pre/post albuterol bronchodilator (same day). The study entry criteria required ≥12% and ≥200 mL at screening. These values are accepted in the diagnosis of asthma.

[2] = tested on: subjects with eosinophilic asthma
Text: Evaluation of Safety: Physical examination, vital signs (systolic and diastolic blood pressure, respiratory rate, heart rate, and temperature), body weight, 12-lead ECG, clinical laboratory evaluations (hematology, blood chemistry, and urinalysis), pregnancy testing, adverse event monitoring, and concomitant medication were monitored throughout the study. […] A neutropenia case report form was utilized during the study to capture detailed clinical information concurrent with any laboratory events of neutropenia.

CCCN[C@@H]1CCc2nc(N)sc2C1 [dexpramipexole, (6R)-2-amino-4,5,6,7-tetrahydro-6-(propylamino) benzothiazole]
Post-Bronchodilator FEV1 Reversibility % change, mean ([1]; 75 mg/day): −58.7% | Post-Bronchodilator FEV1 Reversibility % change, median ([1]; 75 mg/day): −49.9% | Post-Bronchodilator FEV1 Reversibility change, mean ([1]; 75 mg/day): -112 mL | Post-Bronchodilator FEV1 Reversibility change, median ([1]; 75 mg/day): -55.0 mL | Post-Bronchodilator FEV1 Reversibility observed, mean ([1]; 75 mg/day): 264 mL | Post-Bronchodilator FEV1 Reversibility observed, median ([1]; 75 mg/day): 235 mL | Post-Bronchodilator FEV1 Reversibility % change, mean ([1]; 150 mg/day): −39.8% | Post-Bronchodilator FEV1 Reversibility % change, median ([1]; 150 mg/day): −9.68% | Post-Bronchodilator FEV1 Reversibility change, mean ([1]; 150 mg/day): -72.3 mL | Post-Bronchodilator FEV1 Reversibility change, median ([1]; 150 mg/day): 0 mL | Post-Bronchodilator FEV1 Reversibility observed, mean ([1]; 150 mg/day): 279 mL | Post-Bronchodilator FEV1 Reversibility observed, median ([1]; 150 mg/day): 235 mL | Post-Bronchodilator FEV1 Reversibility % change, mean ([1]; 300 mg/day): −19.6% | Post-Bronchodilator FEV1 Reversibility % change, median ([1]; 300 mg/day): −19.0% | Post-Bronchodilator FEV1 Reversibility change, mean ([1]; 300 mg/day): -109 mL | Post-Bronchodilator FEV1 Reversibility change, median ([1]; 300 mg/day): -50.0 mL | Post-Bronchodilator FEV1 Reversibility observed, mean ([1]; 300 mg/day): 336 mL | Post-Bronchodilator FEV1 Reversibility observed, median ([1]; 300 mg/day): 290 mL | Bronchodilator reversibility ([1]; Week 12, 3 DEX arms vs. placebo): preserved | Safety and tolerability ([2]; 300 mg/day and 150 mg/day doses, KNS-760704-AS201 trial): Lastly, the excellent safety and tolerability of the above doses in the KNS-760704-AS201 trial and in previous | Tolerability ([2]; across all dose levels (75, 150, 300 mg/day, 12 weeks)): well-tolerated
